Experimental data reported in PMC10458307, “New Scaffolds of Proteasome Inhibitors: Boosting Anticancer Potential by Exploiting the Synergy of In Silico and In Vitro Methodologies” (Pharmaceuticals, 2023).
Values joined by “and” are separate entries in the source; they are usually repeats but may differ in a detail not shown here. Identical values can stand only once.

What was measured:
HT-29 cells = experiment: Cell viability, MTT assay, HT-29; assay type: cell-based, human; settings: 72 h; for IC50: Homo sapiens, HT-29, mean ± SD; for percentage of cell viability, MTT, HT-29: at 100 µM
Method: (§1) Whenever possible, additional concentrations were tested and IC50 values were determined.
(§2) Human leukemia Jurkat E6.1 T-cell line and K562-cell line were originally obtained from ATCC Collections (Manassas, VA, USA); human HT-29 and HCT116 colorectal carcinoma-cell lines were obtained from ECACC (Porton Down, Porton, UK). Cells were passaged for less than 6 months after and routinely tested for mycoplasma contamination using Mycoalert detection kit (Lonza, Basel, Switzerland). Jurkat, K562, and HT-29 cells were maintained in Roswell Park Memorial Institute (RPMI) 1640 with GlutaMAX™, supplemented with 1% antibiotic mixture (100 µg/mL streptomycin and 100 U/mL penicillin) and 10% heat-inactivated foetal bovine serum (FBS) (all from Gibco, Thermo Fisher Scientific, Paisley, UK). HCT116 cells were maintained in Dulbecco’s Modified Eagle Medium (DMEM) with GlutaMAX™, supplemented with 1% antibiotic mixture (100 µg/mL streptomycin and 100 U/mL penicillin) and 10% heat-inactivated FBS (all from Gibco, Thermo Fisher Scientific, Paisley, UK). Incubation was performed at 37 °C in a 5% CO2 atmosphere. Cells were routinely passaged every 2 or 3 days at 70–90% confluence; TrypLE Express (Gibco, Thermo Fisher Scientific, Paisley, UK) was used as dissociation agent for adherent cells. Trypan blue (Gibco, Thermo Fisher Scientific, Paisley, UK) was used to assess cell viability using the dye exclusion test.
(§3) To assess cell viability, the MTT assay was performed. Jurkat/K562/HT-29/HCT116 cell lines were seeded in triplicate (10,000 cells/well) in 96-well plates with 50 µL of complete medium and incubated at 37 °C, 5% CO2 for 24 h to allow the cells to adhere to the plate (in the case of adherent cells). […] Untreated cells seeded in triplicate were used as control. The blank was performed in triplicate with 100 µL of culture medium. The cells were incubated with the compounds, in triplicate, in 100 µL of total volume, at 37 °C, 5% CO2 for 72 h. […] In suspension cells (Jurkat), 25 µL of MTT were directly added to each well and, after 3 h 30 m of incubation, 100 µL of DMSO were added to solubilize the formazan crystals; in adherent cells (HT-29 and HCT116), the culture medium was removed, 25 µL of MTT were added to each well and, after 3 h 30 m of incubation, upon MTT removal, 100 µL of DMSO were added to solubilize the formazan crystals. After 15 min, the samples absorbance was measured at 570 nm and the percentage of cell viability was determined.

[1] = target: T1, 20S proteasome in K562 cell lysates, CT-L activity (Homo sapiens, UniProt P28074); experiment: Proteasome inhibition assay in cell lysates, K562, CT-L; settings: for inhibition at 10 µM: read-out: percentage of proteasome inhibition, CT-L, cell lysates K562, at 10 µM; for inhibition at 100 µM: read-out: percentage of proteasome inhibition, CT-L, cell lysates K562, at 100 µM
T1 sequence (P28074 60-263): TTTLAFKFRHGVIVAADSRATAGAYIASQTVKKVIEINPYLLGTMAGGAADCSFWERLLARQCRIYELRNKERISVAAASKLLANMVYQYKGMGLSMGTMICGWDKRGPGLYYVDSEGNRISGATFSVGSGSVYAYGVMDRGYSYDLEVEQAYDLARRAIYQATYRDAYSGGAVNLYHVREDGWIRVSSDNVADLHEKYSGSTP
T1 sequence (P20618 29-241 partner): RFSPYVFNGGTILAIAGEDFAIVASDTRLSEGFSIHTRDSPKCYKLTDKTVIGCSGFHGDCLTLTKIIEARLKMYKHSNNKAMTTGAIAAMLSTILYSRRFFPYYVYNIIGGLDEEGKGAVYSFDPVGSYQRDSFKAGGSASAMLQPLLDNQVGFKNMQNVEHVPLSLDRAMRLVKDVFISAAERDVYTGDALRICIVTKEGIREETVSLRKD
Method: Cells were obtained from several cultured cell lines: Jurkat, K562, HT-29, and HCT116. Pellets with 20 × 10^6 cells were prepared and washed with cold sterile phosphate buffered saline (PBS), 1×, pH 7.4 (Gibco, Thermo Fisher Scientific, Paisley, UK). The preparation of the lysates from several cell lines was performed based on the methodology described by Gavioli et al. [67]. Cells were resuspended in buffer containing 50 mM TRIS-HCl pH 7.4 (Nzytech, Lisboa, Portugal), 5 mM MgCl2 (≥98% purity, Merck, Hamburg, Germany), 1 mM DTT (Merck, Hamburg, Germany), 2 mM ATP (≥98% purity, Enzo Life Sciences Inc., Farmingdale, NY, USA), and 250 mM saccharose (Merck, Hamburg, Germany). Glass beads (Merck, Hamburg, Germany) equivalent to the volume of the cell suspension were added, and the mixture was vortexed for 2 min at 4 °C. Beads and cell debris were removed using 5 min centrifugation at 1000× g and 4 °C, followed by 20 min of centrifugation at 10,000× g at 4 °C. Cell lysates containing proteasomes were resuspended in “activity buffer” [50 mM TRIS-HCl (pH 7.4), 5 mM MgCl2, 1 mM DTT, 2 mM ATP (≥98% purity, Enzo Life Sciences Inc., Farmingdale, NY, USA), and 500 µM EDTA (≥98% purity, Merck, Hamburg, Germany)]. Protein concentration was determined using the Pierce™ BCA protocol (Thermo Fisher Scientific, Rockford, IL, USA). […] DMSO was added in an equal volume as used for the untreated compounds as a way to assess/control its influence in the assay. Untreated cells were used as control. In each well of a 96-well plate, 25 µL of lysate were seeded in duplicate with 25 µL of the compound to test; in the control, 25 µL of activity buffer were added to the 25 µL of lysate. A blank (50 µL of activity buffer) was added to the wells in quadruplicate. Cell lysates, pre-treated or not with different concentrations of the test compounds, were incubated for 30 min at 37 °C. […] Stock solutions (10 mM) of each substrate were prepared in DMSO, diluted in activity buffer, and 50 µL were added to all wells (final concentration of each substrate = 100 µM), followed by an incubation at 37 °C for 60 min. Samples fluorescence was measured at an excitation wavelength of 360 nm and emission of 465 nm; the fluorescence measures were performed using the GloMax-Multi + Detection System (Promega Corp., Madison, WI, USA). Activity was evaluated in fluorescence units, after being converted to percentage of proteasome inhibition and, whenever possible, expressed as IC50 by plotting the inhibition data of each compound at different concentrations against the log of the concentration of the inhibitor, using the GraphPad Prism software version 7. At least eight different concentrations of the test compounds were used.

K562 cells = experiment: Cell viability, MTT assay, K562; assay type: cell-based, human; settings: at 100 µM, 72 h
Method: as §1, §2, §3

[2] = system: proteasome CT-L active site; settings: literature values of known proteasome inhibitors; reference per compound; cited from earlier work
[3] = system: proteasome C-L active site; settings: literature values; ref 34 (bortezomib), 35 (ixazomib); cited from earlier work
[4] = at 100 µM, Table 2 legend: bortezomib 10 µM
[5] = Table 2 legend: bortezomib 10 µM

C#CCCN1CCN(c2ccc(-n3c(=O)ccc4cnc5ccc(-c6ccc(N)nc6)cc5c43)cc2C(F)(F)F)CC1 [Compound 4, 9-(6-Aminopyridin-3-yl)-1-(4-(4-(but-3-yn-1-yl)piperazin-1-yl)-3-(trifluoromethyl)phenyl)benzo[h][1,6]naphthyridin-2(1H)-one]
IC50 (HT-29 cells): 43 µM
percentage of cell viability, MTT, HT-29 (HT-29 cells): 34%

Cc1ccc2ccccc2c1CSc1ncnc2c1ncn2C1OC(CO)C(O)C1O (centres unmarked) [Compound 1]
IC50 (HT-29 cells): 61.7 µM
percentage of cell viability, MTT, HT-29 (HT-29 cells): 23%
percentage of proteasome inhibition, CT-L, cell lysates K562 [1, 4]: 63%
inhibition at 10 µM [1]: 0%
inhibition at 100 µM [1, 5]: 62.7%
percentage of cell viability, MTT, K562 (K562 cells): 18%

O=C1c2ccccc2C(=O)c2c(Nc3ccc(S(=O)(=O)N(CCO)CCO)cc3)ccc(O)c21 [Compound 2]
percentage of cell viability, MTT, HT-29 (HT-29 cells): 65%
percentage of proteasome inhibition, CT-L, cell lysates K562 [1, 4]: 40%
inhibition at 10 µM [1]: 13.2%
inhibition at 100 µM [1, 5]: 40.1%
percentage of cell viability, MTT, K562 (K562 cells): 86.52%

Cc1ccc(/C(=N/NS(=O)(=O)c2ccc([N+](=O)[O-])cc2)Sc2cc(Cl)c(C)cc2S(N)(=O)=O)cc1 [Compound 3]
percentage of proteasome inhibition, CT-L, cell lysates K562 [1, 4]: 59%
inhibition at 10 µM [1]: 9.34%
inhibition at 100 µM [1, 5]: 59.1%

CC(C)C[C@H](NC(=O)[C@H](Cc1ccccc1)NC(=O)c1cnccn1)B(O)O [Bortezomib, bortezomib, reference compound]
IC50 [2]: 7 nM
IC50 (HT-29 cells): 0.00973 µM
percentage of proteasome inhibition, CT-L, cell lysates K562 ([1]; at 10 µM): 95.17%
percentage of proteasome inhibition, CT-L, cell lysates K562 [1, 4]: 99.60% and 100%
IC50 [3]: 0.074 µM

CC(C)c1nc(CN(C)C(=O)N[C@@H](CCN2CCOCC2)C(=O)N[C@H](CC[C@H](Cc2ccccc2)NC(=O)OCc2cncs2)Cc2ccccc2)cs1 [Compound 5, cobicistat, reference compound]
IC50 (HT-29 cells): 70.5 µM
percentage of cell viability, MTT, HT-29 (HT-29 cells): 25%
